Assays:
[1] = tested on: B-16 mouse melanoma cell (쥐의 멜라노마 세포); test: Melanin production inhibition (whitening), absorbance at 400 nm; format: cell-based; details: 72 h, 3 days, relative to control, read-out: total melanin inhibition rate
[2] = tested on: RAW264.7 cells, NO production (생쥐의 대식세포인 RAW264.7 세포); test: NO production inhibition by GRIESS method in LPS-stimulated RAW264.7 cells (anti-inflammatory); format: cell-based; details: Mus musculus, LPS 1 μg, 24 h, read-out: NO production inhibition rate
[3] = tested on: type Ⅰ collagen synthesis in human-derived fibroblasts (제1형 콜라겐; 인간 유래 섬유 아세포); test: Type I collagen synthesis promotion in human fibroblasts (PICP EIA kit); format: cell-based; details: 48 h; for type I collagen production amount: negative control 150.2 ng/ml
[4] = DPPH free radical scavenging (antioxidant); details: 37℃, 30 min, 520 nm, concentration removing 50% of free radicals
[5] = Anti-glycation activity using L-arginine and glucose; details: 70℃, 4 h, 420 nm
[6] = Homo sapiens, Fibroblast, 10 ppm, relative to control, read-out: collagen production increase rate

**Q.** For OC[C@H]1O[C@@H](Oc2ccc(O)cc2)[C@H](O)[C@@H](O)[C@@H]1O [알부틴, arbutin, reference compound], which inhibition at 100 ppm ([1]; 100 ppm) is on record?
**A.** Its inhibition at 100 ppm is 47.8%.

**Q.** For CNC(=N)NCCC[C@H](N)C(=O)O [L-NMMA, L-NG-monomethylarginine, reference compound], which inhibition at 10 ppm [2] is on record?
**A.** The inhibition at 10 ppm was 30.6%.

**Q.** Which results are given for COc1c(O[C@@H]2O[C@H](CO)[C@@H](O)[C@H](O)[C@H]2O)cc2occ(-c3ccc(O)cc3)c(=O)c2c1O [화합물 2, tectoridin]?
**A.** inhibition at 10 ppm [1]: 63.1%; inhibition at 100 ppm [2]: 99.5%; type I collagen production amount ([3]; 10 ppm): 221.9 ng/mL; activation at 10 ppm [3, 6]: 47.7%; IC50 [4]: 0.0024 %w/v; glycation inhibition rate ([5]; 10 ppm): 38.95%

**Q.** With O=C1O[C@H]([C@@H](O)CO)C(O)=C1O [비타민C, reference compound] as the molecule, how does the “type I collagen production amount” value ([3]; 50 ppm) read?
**A.** Its value is 210.9 ng/mL.

**Q.** And the activation at 50 ppm ([3]; Homo sapiens, Fibroblast, 50 ppm, relative to control, read-out: collagen production increase rate)?
**A.** The activation at 50 ppm was 40.4%.

**Q.** And the IC50 [4]?
**A.** Its IC50 is 0.0005 %w/v.

**Q.** Which results are given for COc1c(O)cc2occ(-c3ccc(O)cc3)c(=O)c2c1O [화합물 3, tectorigenin]?
**A.** inhibition at 10 ppm [1]: 32.7%; inhibition at 10 ppm [2]: 51.9%; type I collagen production amount ([3]; 10 ppm): 208.1 ng/mL; activation at 10 ppm [3, 6]: 38.5%; IC50 [4]: 0.0012 %w/v; glycation inhibition rate ([5]; 10 ppm): 34.75%

**Q.** What does the source list for COc1c(O[C@@H]2O[C@H](CO[C@@H]3OC[C@@H](O)[C@H](O)[C@H]3O)[C@@H](O)[C@H](O)[C@H]2O)cc2occ(-c3ccc(O)cc3)c(=O)c2c1O [화합물 1, tectorigenin 7-O-xylosylglucoside]?
**A.** inhibition at 10 ppm [1]: 48.3%; inhibition at 100 ppm [2]: 99.5%; type I collagen production amount ([3]; 10 ppm): 202.3 ng/mL; activation at 10 ppm [3, 6]: 34.7%; IC50 [4]: 0.0015 %w/v; glycation inhibition rate ([5]; 10 ppm): 41.67%

**Q.** For N=C(N)NN [Aminoguanidine, reference compound], which glycation inhibition rate ([5]; 55 ppm) is on record?
**A.** The glycation inhibition rate was 48.12%.

From KR20210134284A, “분갈 추출물 또는 이로부터 유래된 화합물을 포함하는 피부 개선용 조성물” (주식회사 엘지생활건강, priority 2018, dated 2020)
